Assay results taken from PubChem BioAssay (NCI).
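Exposure lasted 48 hours, with cells grown in 96-well plates and compounds tested at five concentrations. TGI denotes the concentration required for complete inhibition of growth.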

How the values were obtained:
Test in all cases: NCI anticancer screen, dose series, 48 h
HCT-116 colon = tested on: HCT-116 colon
OVCAR-5 ovarian = tested on: OVCAR-5 ovarian
ACHN renal = tested on: ACHN renal
SNB-75 CNS = tested on: SNB-75 CNS
HOP-62 NSCLC = tested on: HOP-62 NSCLC
UACC-62 melanoma = tested on: UACC-62 melanoma
MALME-3M melanoma = tested on: MALME-3M melanoma
MCF7 breast = tested on: MCF7 breast
SW-620 colon = tested on: SW-620 colon
SK-MEL-2 melanoma = tested on: SK-MEL-2 melanoma
EKVX NSCLC = tested on: EKVX NSCLC
SK-MEL-5 melanoma = tested on: SK-MEL-5 melanoma
CAKI-1 renal = tested on: CAKI-1 renal
M14 melanoma = tested on: M14 melanoma
MDA-MB-231 breast = tested on: MDA-MB-231 breast
K-562 leukemia = tested on: K-562 leukemia
SK-OV-3 ovarian = tested on: SK-OV-3 ovarian
OVCAR-8 ovarian = tested on: OVCAR-8 ovarian
SNB-19 CNS = tested on: SNB-19 CNS
SR leukemia = tested on: SR leukemia
UO-31 renal = tested on: UO-31 renal
MDA-N = tested on: MDA-N
DU-145 prostate = tested on: DU-145 prostate
COLO 205 colon = tested on: COLO 205 colon
RPMI-8226 leukemia = tested on: RPMI-8226 leukemia
HT29 colon = tested on: HT29 colon
PC-3 prostate = tested on: PC-3 prostate
A498 renal = tested on: A498 renal
HCT-15 colon = tested on: HCT-15 colon
T-47D breast = tested on: T-47D breast
SN12C renal = tested on: SN12C renal
OVCAR-3 ovarian = tested on: OVCAR-3 ovarian
HOP-92 NSCLC = tested on: HOP-92 NSCLC
MDA-MB-435 = tested on: MDA-MB-435
OVCAR-4 ovarian = tested on: OVCAR-4 ovarian
HS 578T breast = tested on: HS 578T breast
HCC-2998 colon = tested on: HCC-2998 colon
UACC-257 melanoma = tested on: UACC-257 melanoma
MOLT-4 leukemia = tested on: MOLT-4 leukemia
LOX IMVI melanoma = tested on: LOX IMVI melanoma
NCI-H23 lung = tested on: NCI-H23 lung
SF-539 CNS = tested on: SF-539 CNS
KM12 colon = tested on: KM12 colon
CCRF-CEM leukemia = tested on: CCRF-CEM leukemia
SK-MEL-28 melanoma = tested on: SK-MEL-28 melanoma
IGROV1 ovarian = tested on: IGROV1 ovarian
TK-10 renal = tested on: TK-10 renal
NCI-H522 lung = tested on: NCI-H522 lung
NCI-H226 lung = tested on: NCI-H226 lung
RXF 393 renal = tested on: RXF 393 renal
A549 NSCLC = tested on: A549 NSCLC
BT-549 breast = tested on: BT-549 breast
NCI-H460 lung = tested on: NCI-H460 lung
U251 CNS = tested on: U251 CNS
SF-268 CNS = tested on: SF-268 CNS
SF-295 CNS = tested on: SF-295 CNS
786-0 renal = tested on: 786-0 renal
NCI/ADR-RES ovarian = tested on: NCI/ADR-RES ovarian
HL-60(TB) leukemia = tested on: HL-60(TB) leukemia

## CC[C@@]1(O)C(=O)OCc2c1cc1n(c2=O)Cc2c-1nc1ccccc1c2/C=N\NC(=O)C(N)Cc1cnc[nH]1 (stereo partly specified)
HCT-116 colon
  TGI: > 41.4 µM
OVCAR-5 ovarian
  TGI: > 54.6 µM
ACHN renal
  TGI: 1.18 µM
SNB-75 CNS
  TGI: 36.5 µM
HOP-62 NSCLC
  TGI: 0.299 µM
UACC-62 melanoma
  TGI: 1.22 µM
MALME-3M melanoma
  TGI: > 87.1 µM
MCF7 breast
  TGI: 35.3 µM
SW-620 colon
  TGI: > 100 µM
SK-MEL-2 melanoma
  TGI: > 46.5 µM
EKVX NSCLC
  TGI: > 100 µM
SK-MEL-5 melanoma
  TGI: 1.03 µM
CAKI-1 renal
  TGI: 3.21 µM
M14 melanoma
  TGI: 2.63 µM
MDA-MB-231 breast
  TGI: > 100 µM
K-562 leukemia
  TGI: > 100 µM
SK-OV-3 ovarian
  TGI: > 100 µM
OVCAR-8 ovarian
  TGI: 16.1 µM
SNB-19 CNS
  TGI: > 100 µM
SR leukemia
  TGI: 0.387 µM
UO-31 renal
  TGI: 2.33 µM
MDA-N
  TGI: > 100 µM
DU-145 prostate
  TGI: > 100 µM
COLO 205 colon
  TGI: > 100 µM
RPMI-8226 leukemia
  TGI: 44 µM
HT29 colon
  TGI: > 57.3 µM
PC-3 prostate
  TGI: > 100 µM
A498 renal
  TGI: 4.09 µM
HCT-15 colon
  TGI: > 100 µM
T-47D breast
  TGI: > 100 µM
SN12C renal
  TGI: > 73 µM
OVCAR-3 ovarian
  TGI: > 51.4 µM
HOP-92 NSCLC
  TGI: > 41.5 µM
MDA-MB-435
  TGI: > 85.9 µM
OVCAR-4 ovarian
  TGI: > 100 µM
HS 578T breast
  TGI: > 100 µM
HCC-2998 colon
  TGI: > 67.5 µM
UACC-257 melanoma
  TGI: > 84.3 µM
MOLT-4 leukemia
  TGI: 0.243 µM
LOX IMVI melanoma
  TGI: 3.37 µM
NCI-H23 lung
  TGI: 2.45 µM
SF-539 CNS
  TGI: 0.538 µM
KM12 colon
  TGI: > 28.7 µM
CCRF-CEM leukemia
  TGI: 15 µM
SK-MEL-28 melanoma
  TGI: > 100 µM
IGROV1 ovarian
  TGI: > 54.7 µM
TK-10 renal
  TGI: > 100 µM
NCI-H522 lung
  TGI: > 19.7 µM
NCI-H226 lung
  TGI: 16.5 µM
RXF 393 renal
  TGI: 9.59 µM
A549 NSCLC
  TGI: > 100 µM
BT-549 breast
  TGI: > 100 µM
NCI-H460 lung
  TGI: 4.8 µM
U251 CNS
  TGI: 5.03 µM
SF-268 CNS
  TGI: > 25.8 µM

## O=C(N/N=C\c1ccc([N+](=O)[O-])cc1)c1ccccc1Nc1ccccc1C(=O)N/N=C/c1ccc([N+](=O)[O-])cc1
HCT-116 colon
  TGI: > 100 µM
OVCAR-5 ovarian
  TGI: > 100 µM
ACHN renal
  TGI: > 100 µM
SF-295 CNS
  TGI: > 100 µM
SNB-75 CNS
  TGI: > 100 µM
HOP-62 NSCLC
  TGI: > 100 µM
UACC-62 melanoma
  TGI: > 100 µM
MALME-3M melanoma
  TGI: > 100 µM
MCF7 breast
  TGI: > 100 µM
SW-620 colon
  TGI: > 100 µM
SK-MEL-2 melanoma
  TGI: > 100 µM
EKVX NSCLC
  TGI: > 100 µM
SK-MEL-5 melanoma
  TGI: > 100 µM
CAKI-1 renal
  TGI: > 100 µM
M14 melanoma
  TGI: 79.7 µM
MDA-MB-231 breast
  TGI: 95.1 µM
K-562 leukemia
  TGI: > 100 µM
SK-OV-3 ovarian
  TGI: > 100 µM
OVCAR-8 ovarian
  TGI: > 100 µM
SNB-19 CNS
  TGI: > 100 µM
SR leukemia
  TGI: > 100 µM
786-0 renal
  TGI: > 100 µM
NCI/ADR-RES ovarian
  TGI: > 100 µM
UO-31 renal
  TGI: > 100 µM
MDA-N
  TGI: > 100 µM
DU-145 prostate
  TGI: > 100 µM
COLO 205 colon
  TGI: > 100 µM
RPMI-8226 leukemia
  TGI: > 100 µM
HT29 colon
  TGI: > 100 µM
PC-3 prostate
  TGI: > 100 µM
A498 renal
  TGI: > 100 µM
HCT-15 colon
  TGI: > 100 µM
T-47D breast
  TGI: > 100 µM
SN12C renal
  TGI: > 100 µM
OVCAR-3 ovarian
  TGI: > 100 µM
HOP-92 NSCLC
  TGI: > 100 µM
MDA-MB-435
  TGI: > 100 µM
OVCAR-4 ovarian
  TGI: > 100 µM
HS 578T breast
  TGI: > 100 µM
HCC-2998 colon
  TGI: > 100 µM
UACC-257 melanoma
  TGI: > 100 µM
MOLT-4 leukemia
  TGI: > 100 µM
NCI-H23 lung
  TGI: > 100 µM
KM12 colon
  TGI: > 100 µM
CCRF-CEM leukemia
  TGI: > 100 µM
SK-MEL-28 melanoma
  TGI: > 100 µM
IGROV1 ovarian
  TGI: > 100 µM
TK-10 renal
  TGI: > 100 µM
NCI-H226 lung
  TGI: > 100 µM
RXF 393 renal
  TGI: > 100 µM
A549 NSCLC
  TGI: > 100 µM
HL-60(TB) leukemia
  TGI: > 100 µM
BT-549 breast
  TGI: > 100 µM
NCI-H460 lung
  TGI: > 100 µM
U251 CNS
  TGI: > 100 µM
SF-268 CNS
  TGI: > 100 µM
